What was measured:
Wheat = assay: Whole plant screen for plant growth regulator activity, wheat (WW); format: in vivo, Wheat (Timmo); conditions: for G = Greening effect / I = Interligular or internodal length reduction / T = Tillering or side shooting / R = Retardation: WW, 4000 ppm (4 kg/ha), visual score after 2-6 weeks; for T = Tillering or side shooting: * = decrease in tillering
In short: (§1)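 Growth-regulator effects were judged by eye on glasshouse plants 2-6 weeks post-spray (timing varying with season), using formulation blanks for comparison. Application rate was 4000 ppm, equivalent to 4 kg/ha in 1000 l/ha.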

Rice [1] = assay: Modified Intermediate Retardant Test, rice; format: in vivo, Rice (Ishikari); conditions: 2000 g/ha, overall spray, height to topmost ligule 21 days after treatment
Description: (§2) The general Intermediate Retardant Test described in Example 62 was modified by the addition of Sunflowers (SR) and the variety and growth stages at spray are outlined in Table XIII. Apart from the changes indicated, growing conditions for barley, rice and apples were as in Example 62 and growing conditions for Sunflower were as for apples. Test compounds were applied to barley, rice and apples as whole plant (overall) sprays at a rate of 2000 g/ha. Test compounds were applied to sunflowers separately as a foliar only spray at a rate of 2000 g/ha and as a root drench at a rate of 2000 g/ha.
(§3) Barley and rice were assessed for height to topmost ligule 21 days after treatment; apples were assessed for height to apex at 21 days after treatment; and sunflowers were assessed for height to apex at 14 days after treatment. The results are expressed as percentage reduction in height compared with the formulation blank in Table XIV.

Apple [2] = assay: Modified Intermediate Retardant Test, apples; format: in vivo, Apple (Red Delicious); conditions: 2000 g/ha, overall spray, height to apex 21 days after treatment
Description: as §2, §3

Barley [3] = assay: Whole plant screen for plant growth regulator activity, barley (BR); format: in vivo, Barley (Atem); conditions: BR, 4000 ppm (4 kg/ha), visual score after 2-6 weeks; for T = Tillering or side shooting: * = decrease in tillering
In short: as §1

Tomato = assay: Whole plant screen for plant growth regulator activity, tomato (TO); format: in vivo, Tomato (Ailsa Craig); conditions: 4000 ppm (4 kg/ha), visual score after 2-6 weeks
In short: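 Plant growth regulation scored visually 2–6 weeks post-spray, relative to formulation-blank controls, with growth at 25/22 °C day/night under 16 h light. Treatment: 4000 ppm (4 kg/ha, 1000 l/ha volume) track-sprayed onto Ailsa Craig tomato at the 2–2½ leaf stage, grown singly in 3-inch peat pots.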

Sunflower = assay: Modified Intermediate Retardant Test, sunflower; format: in vivo; conditions: 2000 g/ha, height to apex 14 days after treatment; for […] IN HEIGHT, SR (Foliar): foliar only spray; for […] IN HEIGHT, SR (Root): root drench
Description: as §2, §3

Barley [4] = assay: Modified Intermediate Retardant Test, barley; format: in vivo, Barley (Atem); conditions: 2000 g/ha, overall spray, height to topmost ligule 21 days after treatment
Description: as §2, §3

Phytophthora infestans = format: in vivo; conditions: 100 ppm spray plus root drench (approximately 40 ppm a.i/dry soil), one or two days before inoculation
Pyricularia oryzae = format: in vivo; conditions: 100 ppm spray plus root drench (approximately 40 ppm a.i/dry soil), one or two days before inoculation
Cercospora arachidicola = assay: Foliar fungal disease control, Cercospora arachidicola (peanut); format: in vivo; conditions: 100 ppm spray plus root drench (approximately 40 ppm a.i/dry soil), one or two days before inoculation
Erysiphe graminis = assay: Foliar fungal disease control, Erysiphe graminis (barley); format: in vivo; conditions: 100 ppm spray plus root drench (approximately 40 ppm a.i/dry soil); inoculated 24 hours before treatment
Puccinia recondita = assay: Foliar fungal disease control, Puccinia recondita (wheat); format: in vivo; conditions: 100 ppm spray plus root drench (approximately 40 ppm a.i/dry soil), one or two days before inoculation
Plasmopara viticola = assay: Foliar fungal disease control, Plasmopara viticola (vine); format: in vivo; conditions: 100 ppm spray plus root drench (approximately 40 ppm a.i/dry soil), one or two days before inoculation
Rice [5] = assay: Intermediate Retardant Test, rice; format: in vivo, Rice (Ishikari); conditions: Oryza sativa, 672 h, overall spray, approximately 28 days, Table VI, read-out: Percentage Reduction in Height of Rice (Compared to formulation blank)
In short: (§4)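 Overall spray at 500 and 2000 ppm (0.5 and 2 kg/ha^-1 at 1000 l/ha^-1); for apples, a 2000 ppm foliar-only spray was also compared with a 2000 ppm root drench. Rice grew in flooded 4" paddy pots, barley and apples in 4" pots. About 28 days after treatment, height (to top-most ligule, or to apex for apples) was recorded as % reduction versus formulation blank.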

Apple [6] = assay: Whole plant screen for plant growth regulator activity, apple (AP); format: in vivo, Apple (Red Delicious); conditions: 4000 ppm (4 kg/ha), visual score after 2-6 weeks
In short: as §1

Rice [7] = assay: Whole plant screen for plant growth regulator activity, rice (RC); format: in vivo, Rice (Ishikari); conditions: 4000 ppm (4 kg/ha), visual score after 2-6 weeks
In short: as §1

Maize = assay: Whole plant screen for plant growth regulator activity, maize (MZ); format: in vivo, Maize (Earliking); conditions: 4000 ppm (4 kg/ha), visual score after 2-6 weeks
Protocol: Compounds 1 to 3 in Table 1 were tested for plant growth regulator activity against five species for various growth effects relevant to plant growth regulation.
The plant species used in this screen are presented in Table II with the leaf stage at which they were sprayed. Each chemical was applied at 4000 ppm (4 kg/ha in a 1000 l/ha field volume) using a tracksprayer and a SS8004E (Teejet) nozzle.
After spray the plants were grown in a glasshouse with 25° C. day/22° C. night temperatures and supplementary lighting was supplied when necessary (from mercury vapour lamps), to provide a 16 hour photoperiod. The exception to this were the temperate cereals, wheat and barley which were grown in 16° C. day/13° C. night temperatures.
After 2-6 weeks in the glasshouse, depending on the time of year, the plants were visually assessed for morphological characteristics. Formulation blanks were used as controls to assess the plants. […]

Apples = assay: Intermediate Retardant Test, apples, foliar spray compared with root drench; format: in vivo, Apples (Red Delicious); conditions: 672 h, approximately 28 days, Table IX, read-out: Percentage Reduction in Height of Apples (Compared to formulation blank)
In short: as §4

Spring Barley = assay: Intermediate Retardant Test, spring barley; format: in vivo, Spring Barley (Atem/kym); conditions: Hordeum vulgare, 672 h, overall spray, approximately 28 days, Table VII, read-out: Percentage Reduction in Height of Spring Barley (Compared to formulation blank)
In short: as §4

Compound: CCCCC#CC(O)(c1cncnc1)C(C)(C)C (stereo not shown) [Compound 31]
- A = Apical damage (Wheat; 4000 ppm): 1 (10-30%)
- G = Greening effect (Wheat): 3 (61-100%)
- I = Interligular or internodal length reduction (Wheat): 3 (61-100%)
- T = Tillering or side shooting (Wheat): 1 (10-30%)
- […] IN HEIGHT, RC (Rice [1]): 77%
- […] IN HEIGHT, AP (Apple [2]): 50%
- G = Greening effect (Barley [3]): 3 (61-100%)
- I = Interligular or internodal length reduction (Barley [3]): 3 (61-100%)
- R = Retardation (Barley [3]): 3 (61-100%)
- T = Tillering or side shooting (Barley [3]): 1 (10-30%)
- G = Greening effect (Tomato): 2 (31-60%)
- I = Interligular or internodal length reduction (Tomato): 3 (61-100%)
- R = Retardation (Tomato): 3 (61-100%)
- […] IN HEIGHT, SR (Foliar) (Sunflower): 19%
- […] IN HEIGHT, SR (Root) (Sunflower): 51%
- […] IN HEIGHT, BR (Barley [4]): 69%

Compound: CC(C)(C)/C=C/C(O)(c1cncnc1)C1(C)CC1 (stereo not shown) [Compound 55]
- disease control, PH[…] (TOMATO) (Phytophthora infestans): 0 (60-100% of disease on untreated plants)
- disease control, P[…] (RICE) (Pyricularia oryzae): 0 (60-100% of disease on untreated plants)
- G = Greening effect (Wheat): 1 (10-30%)
- I = Interligular or internodal length reduction (Wheat): 2 (31-60%)
- R = Retardation (Wheat): 2 (31-60%)
- T = Tillering or side shooting (Wheat): 1 (10-30%)
- disease control, CERCOSPORA ARACHIDICOLA (PEANUT) (Cercospora arachidicola): 4
- disease control, ERYSIPHE GRAMINIS (BARLEY) (Erysiphe graminis): 4
- disease control, PUCCINIA RECONDITA (WHEAT) (Puccinia recondita): 4
- disease control, PLASMOPARA VITICOLA (VINE) (Plasmopara viticola): 0 (60-100% of disease on untreated plants)
- T = Tillering or side shooting (Barley [3]): 3 (61-100%)
- G = Greening effect (Tomato): 2 (31-60%)
- I = Interligular or internodal length reduction (Tomato): 2 (31-60%)
- R = Retardation (Tomato): 2 (31-60%)

Compound: CC(C)CCCC(O)(c1cncnc1)C(C)C (stereo not shown) [Compound 7, 2-Methyl-1-(4-methylpentyl)-1-(pyrimidin-5-yl)propan-1-ol]
- Percent reduction in rice height vs formulation blank at 500 ppm (Rice [5]; 500 ppm): 31%
- Percent reduction in rice height vs formulation blank at 2000 ppm (Rice [5]; 2000 ppm): 45%
- G = Greening effect (Apple [6]): 1 (10-30%)
- I = Interligular or internodal length reduction (Apple [6]): 2 (31-60%)
- R = Retardation (Apple [6]): 3 (61-100%)
- disease control, PH[…] (TOMATO) (Phytophthora infestans): 0 (60-100% of disease on untreated plants)
- disease control, P[…] (RICE) (Pyricularia oryzae): 0 (60-100% of disease on untreated plants)
- G = Greening effect (Rice [7]): 1 (10-30%)
- I = Interligular or internodal length reduction (Rice [7]): 2 (31-60%)
- R = Retardation (Rice [7]): 2 (31-60%)
- G = Greening effect (Wheat): 2 (31-60%)
- I = Interligular or internodal length reduction (Wheat): 3 (61-100%)
- R = Retardation (Wheat): 3 (61-100%)
- T = Tillering or side shooting (Wheat): 3 (61-100%)
- G = Greening effect (Maize): 1 (10-30%)
- I = Interligular or internodal length reduction (Maize): 2 (31-60%)
- R = Retardation (Maize): 2 (31-60%)
- percent reduction in plant height at 2000 ppm (Apples; 2000 ppm (Foliar)): 12%
- percent reduction in plant height at 2000 µg/mL (Apples; soil, 2000 pmm (Root), root drench): 45%
- disease control, CERCOSPORA ARACHIDICOLA (PEANUT) (Cercospora arachidicola): 0 (60-100% of disease on untreated plants)
- disease control, ERYSIPHE GRAMINIS (BARLEY) (Erysiphe graminis): 4
- disease control, PUCCINIA RECONDITA (WHEAT) (Puccinia recondita): 0 (60-100% of disease on untreated plants)
- G = Greening effect (Barley [3]): 2 (31-60%)
- I = Interligular or internodal length reduction (Barley [3]): 2 (31-60%)
- R = Retardation (Barley [3]): 2 (31-60%)
- T = Tillering or side shooting (Barley [3]): 1 (10-30%)
- G = Greening effect (Tomato): 2 (31-60%)
- I = Interligular or internodal length reduction (Tomato): 3 (61-100%)
- R = Retardation (Tomato): 3 (61-100%)
- percent reduction in plant height at 500 ppm (Spring Barley; 500 ppm): 23%
- percent reduction in plant height at 2000 ppm (Spring Barley; 2000 ppm): 47%

Compound: CCCCCCC#CC(O)(c1cncnc1)C(C)C (stereo not shown) [Compound 24]
- G = Greening effect (Wheat): 2 (31-60%)
- R = Retardation (Wheat): 1 (10-30%)
- […] IN HEIGHT, RC (Rice [1]): 17%
- […] IN HEIGHT, AP (Apple [2]): 37%
- I = Interligular or internodal length reduction (Barley [3]): 2 (31-60%)
- R = Retardation (Barley [3]): 2 (31-60%)
- T = Tillering or side shooting (Barley [3]): 2*
- G = Greening effect (Tomato): 2 (31-60%)
- R = Retardation (Tomato): 1 (10-30%)
- […] IN HEIGHT, SR (Foliar) (Sunflower): 0%
- […] IN HEIGHT, SR (Root) (Sunflower): 3%
- […] IN HEIGHT, BR (Barley [4]): 6%

Compound: CCCCCC#CC(O)(c1cncnc1)C(C)(C)C (stereo not shown) [Compound 32]
- G = Greening effect (Wheat): 1 (10-30%)
- I = Interligular or internodal length reduction (Wheat): 3 (61-100%)
- R = Retardation (Wheat): 2 (31-60%)
- […] IN HEIGHT, RC (Rice [1]): 46%
- […] IN HEIGHT, AP (Apple [2]): 30%
- G = Greening effect (Barley [3]): 2 (31-60%)
- I = Interligular or internodal length reduction (Barley [3]): 3 (61-100%)
- R = Retardation (Barley [3]): 3 (61-100%)
- T = Tillering or side shooting (Barley [3]): 1 (10-30%)
- G = Greening effect (Tomato): 2 (31-60%)
- I = Interligular or internodal length reduction (Tomato): 1 (10-30%)
- R = Retardation (Tomato): 2 (31-60%)
- […] IN HEIGHT, SR (Foliar) (Sunflower): 13%
- […] IN HEIGHT, SR (Root) (Sunflower): 37%
- […] IN HEIGHT, BR (Barley [4]): 17%

Compound: CCC/C=C\C(O)(c1cncnc1)C(C)C (stereo not shown) [Compound 25, 2-methyl-1-(pent-1-ene)-1-(pyrimidin-5-yl)-propan-1-ol]
- G = Greening effect (Wheat): 2 (31-60%)
- I = Interligular or internodal length reduction (Wheat): 1 (10-30%)
- R = Retardation (Wheat): 1 (10-30%)
- […] IN HEIGHT, RC (Rice [1]): 55%
- […] IN HEIGHT, AP (Apple [2]): 31%
- G = Greening effect (Barley [3]): 3 (61-100%)
- I = Interligular or internodal length reduction (Barley [3]): 3 (61-100%)
- R = Retardation (Barley [3]): 3 (61-100%)
- T = Tillering or side shooting (Barley [3]): 1*
- G = Greening effect (Tomato): 2 (31-60%)
- I = Interligular or internodal length reduction (Tomato): 1 (10-30%)
- R = Retardation (Tomato): 1 (10-30%)
- […] IN HEIGHT, SR (Foliar) (Sunflower): 0%
- […] IN HEIGHT, SR (Root) (Sunflower): 54%
- […] IN HEIGHT, BR (Barley [4]): 52%

Reference: patent US4875922A, “Pyrimidine derivatives” (Imperial Chemical Industries PLC, priority 1986, dated 1989)
